{"source": "patent US4195179A", "about": "“5-(Indol-3-ylmethylene)-1,3-dimethyl-2-methylamino-4-imidazolidinone” (Hoffmann-La Roche Inc., priority 1976, dated 1980)", "key": {"[1]": {"assay": "acute toxicity (LD50)", "settings": "mouse, in vivo"}, "[2]": {"system": "tetrabenazine induced ptosis", "assay": "antagonism of tetrabenazine induced ptosis", "format": "in vivo", "settings": "Mus musculus, 1 h; oral, male mice; tetrabenazine methanesulfonate 100 mg/kg one hour after test compound; ptosis observed one hour later", "method": "Groups of 10 mice each are administered tetrabenazine methanesulfonate at a dose of 100 mg/kg., one hour after oral administration of the test compound. One hour after tetrabenazine administration, each mouse is observed for the presence or absence of ptosis. An ED50 value for the antagonism of tetrabenazine induced ptosis is then determined."}}, "data": [{"compound": "COc1ccc2c3c([nH]c2c1)C(C)=NCC3", "note": "[harmaline]", "values": [{"measurement": "LD50", "setting": "[1]; ip", "value": 120, "unit": "mg/kg"}, {"measurement": "LD50", "setting": "[1]; po", "value": 380, "unit": "mg/kg"}]}, {"compound": "C#CCN(C)Cc1ccccc1", "note": "[pargyline]", "values": [{"measurement": "LD50", "setting": "[1]; ip", "value": 390, "unit": "mg/kg"}, {"measurement": "LD50", "setting": "[1]; po", "value": 720, "unit": "mg/kg"}]}, {"compound": "C/N=C1/N(C)C(=O)/C(=C\\c2c[nH]c3ccccc23)N1C", "note": "[(E)-5-(indol-3-ylmethylene)-1,3-dimethyl-2-methylimino-4-imidazolidinone]", "values": [{"measurement": "LD50", "setting": "[1]; ip", "value": 670, "unit": "mg/kg"}, {"measurement": "LD50", "setting": "[1]; po", "value": 900, "unit": "mg/kg"}, {"measurement": "ED50", "setting": "[2]", "value": 5, "unit": "mg/kg"}]}]}
